Square brackets hold non-standard residues; d marks the D form. Peptide text beside a SMILES is read from it. pGlu = O=C1CC[C@@H](C(=O)O)N1
Key:
Format in all cases: in vivo
[1] = tested on: mice irradiated with 900R X-rays; assay: Survival of mice after whole body irradiation with 900R X-rays
Protocol: Male, 10 week-old C3H/He mice were used and groups of 10 - 15 animals each were prepared.
The mice were subjected to whole body irradiation for 8 minutes using a X-radiation unit (manufactured by Shimazu Seisaku-sho, Shin-Ai 250 II). These animals received, once per day, subcutaneous administration of 100 µg of FTS·CH₃COOH·2H₂O as used in Example 1 for consecutive 14 days. For a pre-administered group, the administration started two days before the irradiation. For a post-administered group, the first administration was effected immediately after the irradiation. As control groups, one group which received only once subcutaneous administration of 1 KE of Picibanil immediately after the irradiation and another group which received every day administration of physiological saline were prepared.
In the same manner as in Experimental Example 1, mice were subcutaneously administered, after X-radiation for 9 minutes, with 100 µg/day of FTS·CH₃COOH·2H₂O, once a day and twelve times in all, i.e. on the zero, 1st, 2nd, 3rd, 4th, 5th, 7th, 8th, 9th, 10th, 11th and 12th days.

[2] = tested on: mice were subjected to 600R X-radiation / 400R X-radiation; assay: Blood test in X-irradiated mice (600R and 400R); conditions: for Blood parameters HCT / Blood parameters HGB / Blood parameters PLT / Blood parameters RBC / Blood parameters RET / Blood parameters WBC: pre-administration with 100 µg; for Blood parameters HCT: hematocrit value; for Blood parameters HGB: hemoglobin; for Blood parameters PLT: number of blood platelet; for Blood parameters RBC: number of red blood cells; for Blood parameters RET: number of reticulocytes; for Blood parameters WBC: number of white blood cells
Protocol: Independently of the irraditation carried out in Experimental Example 3 with mice for life/death observation, mice were subjected to 600R X-radiation to conduct a blood test on a dayly basis. Another group of mice was prepared and subjected to 400R X-radiation. Each of the 600R- and 400R-irradiated groups was further divided into two, one `group being for pre-administration with 100 µg of the above mentioned medicament and the other group serving as a control. Samples of blood were taken every day from each mouse and tested for the number white blood cells (WBC), that of red blood cells (RBC), that of reticulocytes (RET), that of blood platelet (PLT), that of hemoglobin (HGB) and hematocrit value (HCT).

[3] = Body weight measurement of 600R-irradiated mice; conditions: for body weight (g) [Mean ± S.D.]: 600R X-ray, 100 µg/day s.c. pre-administration
Protocol: In the same manner as in Experimental Examples 1 and 2, mice were irradiated with X-rays for 6 minutes. For a period of consecutive 14 days from 2 days before irradiation, the animals were subcutaneously administered, once a day, with 100 µg/day of FTS·CH₃COOH·2H₂O as medicament.
The body weight of each experimental group of mice in Experimental Example 3 was measured on consecutive days for observation of changes in weight.

ddy male mice = assay: Toxicity test, repeated subcutaneous administration to mice; conditions: for toxicity: five ddy male mice of 5 weeks old
Text: (§1) Thus, the medicament of the present invention is a safe medicament of extremely low toxicity and can be administered for a long period of time.

Wister rats = assay: Toxicity test, repeated subcutaneous administration to rats
Text: as §1

mice = assay: Whole body X-irradiation, % survival over thirty days (general description)
Protocol: The effect of the radioprotective agent of the present invention is confirmed by the experiments as described below. Thus, mice, rats, guinea pigs or the like mammals were subjected to whole body irradiation, using a X-radiation unit (Shimazu Seisaku-sho, Shin-Ai 250 II), to determine % survival over a period of thirty days. In carrying out these experiments, given amounts of the nonapeptide were administered by different routes of administration, such as intraperitoneal, intravenous, intramuscular, subcutaneous or oral route of administration, either every day or every other day over a given period of time from before or from immediately after the irradiation, to measure the body-weight of the animals and observe whether they were alive or dead.

[4] = tested on: animals subjected to whole body irradiation with lethal or sub-lethal doses; assay: Recovery of hematopoietic dysfunctions and immune responses after whole body irradiation (general description)
Protocol: On the other hand, animals were subjected to whole body irradiation with lethal or sub-lethal doses and changes with the lapse of time in the number of blood cells were measured for given periods of time in order to check the medicament for the promotive effect on the recovery of hematopoietic dysfunctions. Blood cells used as index included red blood cells, reticulocytes, white blood cells such as lymphocytes and neutrophils, platelets, hemoglobins, hematocrit and the like. […] Thus, as is evident from these observations, the medicament of the present invention is believed to act on hematopoietic organs, e.g. bone marrow and spleen, and exert the life span-extending or life-saving effect due to its inhibitory or recovery-promoting effect on hematopoietic dysfunctions, and it is therefore valuable as a preventive and therapeutic agent against radiation damages.

cancer-carrying mice = assay: Radiotherapeutic experiments on cancer-carrying mice; conditions: pre- or post-irradiation administration
[5] = tested on: radiation-induced cancers in mice; assay: Development of radiation-induced cancers in irradiated mice; conditions: administration over a certain period

Compound: C[C@H](NC(=O)[C@@H]1CCC(=O)N1)C(=O)N[C@@H](CCCCN)C(=O)N[C@@H](CO)C(=O)N[C@@H](CCC(N)=O)C(=O)NCC(=O)NCC(=O)N[C@@H](CO)C(=O)N[C@@H](CC(N)=O)C(=O)O [medicament, pGlu-Ala-Lys-Ser-Gln-Gly-Gly-Ser-Asn] ([pGlu]AKSQGGSN-OH)
- The number of days and survivals after X-radiation 9 (days) ([1]; 900R X-rays, post-administration 100 µg/day s.c., twelve times in all (days 0-5, 7-12), day 9, 15 animals used): 15
- The number of days and survivals after X-radiation 10 (days) ([1]; 900R X-rays, post-administration 100 µg/day s.c., twelve times in all (days 0-5, 7-12), day 10, 15 animals used): 13
- The number of days and survivals after X-radiation 11 (days) ([1]; 900R X-rays, post-administration 100 µg/day s.c., twelve times in all (days 0-5, 7-12), day 11, 15 animals used): 12
- The number of days and survivals after X-radiation 12 (days) ([1]; 900R X-rays, post-administration 100 µg/day s.c., twelve times in all (days 0-5, 7-12), day 12, 15 animals used): 12
- The number of days and survivals after X-radiation 13 (days) ([1]; 900R X-rays, post-administration 100 µg/day s.c., twelve times in all (days 0-5, 7-12), day 13, 15 animals used): 7
- The number of days and survivals after X-radiation 14 (days) ([1]; 900R X-rays, post-administration 100 µg/day s.c., twelve times in all (days 0-5, 7-12), day 14, 15 animals used): 4
- The number of days and survivals after X-radiation 15 (days) ([1]; 900R X-rays, post-administration 100 µg/day s.c., twelve times in all (days 0-5, 7-12), day 15, 15 animals used): 3
- The number of days and survivals after X-radiation 16 (days) ([1]; 900R X-rays, post-administration 100 µg/day s.c., twelve times in all (days 0-5, 7-12), day 16, 15 animals used): 2
- The number of days and survivals after X-radiation 18 (days) ([1]; 900R X-rays, post-administration 100 µg/day s.c., twelve times in all (days 0-5, 7-12), day 18, 15 animals used): 2
- The number of days and survivals after X-radiation 20 (days) ([1]; 900R X-rays, post-administration 100 µg/day s.c., twelve times in all (days 0-5, 7-12), day 20, 15 animals used): 2
- The number of days and survivals after X-radiation 21 (days) ([1]; 900R X-rays, post-administration 100 µg/day s.c., twelve times in all (days 0-5, 7-12), day 21, 15 animals used): 1
- The number of days and survivals after X-radiation 23 (days) ([1]; 900R X-rays, post-administration 100 µg/day s.c., twelve times in all (days 0-5, 7-12), day 23, 15 animals used): 0
- life span extension ([1]; 900R, 100 µg/day s.c. twelve times after X-radiation, summary of Table 2): exhibited a life span extension
- Blood parameters HCT ([2]; 400R X-rays, on the 14th day): 29.8±1.4
- Blood parameters HGB ([2]; 400R X-rays, on the 14th day): 8.8±0.3
- Blood parameters PLT ([2]; 400R X-rays, on the 14th day): 240.6±14.3
- Blood parameters RBC ([2]; 400R X-rays, on the 14th day): 522.7±21.7
- Blood parameters RET ([2]; 400R X-rays, on the 14th day): 30.0±6.5
- Blood parameters WBC ([2]; 400R X-rays, on the 14th day): 8.7±0.4
- Blood parameters HCT ([2]; 600R X-rays, on the 7th day): 39.1±5.5
- Blood parameters HGB ([2]; 600R X-rays, on the 7th day): 12.3±1.9
- Blood parameters PLT ([2]; 600R X-rays, on the 7th day): 372.0±174.7
- Blood parameters RBC ([2]; 600R X-rays, on the 7th day): 691.8±96.1
- Blood parameters RET ([2]; 600R X-rays, on the 7th day): 24.6±10.9
- Blood parameters WBC ([2]; 600R X-rays, on the 7th day): 34.2±25.2
- blood parameters (WBC, RBC, RET, PLT, HGB, HCT) ([2]; 600R or 400R X-radiation, pre-administration 100 µg, compared with control group, summary of Table 4): apparently improved
- body weight (g) [Mean ± S.D.] ([3]; 1 day after irradiation): 27.8±1.5 (15) g
- body weight (g) [Mean ± S.D.] ([3]; 3 days after irradiation): 27.7±1.1 (15) g
- body weight (g) [Mean ± S.D.] ([3]; 5 days after irradiation): 27.9±1.1 (15) g
- body weight (g) [Mean ± S.D.] ([3]; 7 days after irradiation): 28.8±1.2 (10) g
- body weight (g) [Mean ± S.D.] ([3]; 9 days after irradiation): 29.8±1.0 (10) g
- body weight (g) [Mean ± S.D.] ([3]; 11 days after irradiation): 30.2±0.9 (10) g
- body weight (g) [Mean ± S.D.] ([3]; 13 days after irradiation): 29.6±0.7 (10) g
- body weight (g) [Mean ± S.D.] ([3]; 15 days after irradiation): 28.3±0.8 (10) g
- body weight (g) [Mean ± S.D.] ([3]; 17 days after irradiation): 28.2±1.0 (10) g
- body weight (g) [Mean ± S.D.] ([3]; 19 days after irradiation): 29.1±0.8 (10) g
- body weight (g) [Mean ± S.D.] ([3]; 29 days after irradiation): 28.5±1.4 (10) g
- body weight versus control group ([3]; 600R X-rays, summary of Table 5): evidently weighed more than the control group
- toxicity (ddy male mice; 50 mg/kg subcutaneously for consecutive 14 days): No toxicity was observed
- toxicity (external check) (ddy male mice; 100 mg/kg subcutaneously every day for consecutive 14 days, mice): no abnormal symptom was found by external check
- toxicity (ddy male mice; 100 mg/kg subcutaneously for consecutive 14 days): No toxicity was observed
- toxicity (external behavior observation, biochemical diagnosis of sera, pathological anatomy) (Wister rats; 30 mg/kg subcutaneously every day for consecutive 21 days, rats): no abnormal symptom was found in external behavior observation and biochemical diagnosis of sera and in a result of pathological anatomy
- toxicity (Wister rats; 30 mg/kg subcutaneously for consecutive 21 days, ten Wister rats of 5 weeks old): No toxicity was observed
- inhibition of body-weight loss (mice; compared with the control group): significant inhibition of body-weight loss
- % survival (mice; over a period of thirty days, depending on the dose of radiation, all mice in control group died): 40 - 100%
- life span-extending effect (mice; versus control group): significant or marked life span-extending effect
- immune responses of immunocytes (spleen cells response to Con A, thymus cells reactivity to IL-1) ([4]; irradiated animals, examined every day, versus control group): apparently higher than those for the control group
- immunocytes capabilities of humoral factor production (IL-1 by peritoneal macrophage, CSF by spleen cells and peritoneal macrophage) ([4]; irradiated animals, versus control group): superior to the control group
- reduction of blood cells due to irradiation ([4]; whole body irradiation with lethal or sub-lethal doses, red blood cells, reticulocytes, white blood cells, platelets, hemoglobins, hematocrit): markedly inhibited
- anti-cancer effect of radiotherapy (cancer-carrying mice): potentiated
- development of radiation-induced cancers [5]: inhibits the development of radiation-induced cancers in mice
